Test results reported in ChEMBL document CHEMBL1156536, “Thiocarbamates as non-nucleoside HIV-1 reverse transcriptase inhibitors. Part 2: Parallel synthesis, molecular modelling and structure-activity relationship studies on analogues of O-(2-phenylethyl)-N-phenylthiocarbamate” (Bioorg Med Chem, 2008).
Activity calls are given as the source filed them. The calls are words filed in the database; no cut-off is given here.

Key:
[1] = system: Human immunodeficiency virus 1; test: Antiviral activity against HIV1 in human MT4 cells assessed as inhibition of virus-induced cytopathogenicity by MTT assay; type: functional, organism-based; conditions: Human immunodeficiency virus 1, MT4
[2] = Cytotoxicity against mock-infected human MT4 cells by MTT assay; type: cell-based
[3] = Selectivity index, ratio of CC50 for human MT4 cells to EC50 for HIV1; type: toxicity, cell-based; conditions: read-out: Ratio CC50/EC50
[4] = system: Human immunodeficiency virus 1; test: Reduction of HIV1 p24 antigen level in virus infected C8166 cells; type: functional; conditions: Human immunodeficiency virus 1, C8166
[5] = system: Human immunodeficiency virus 1; test: Antiviral activity against HIV1 with reverse transcriptase Y181C mutation in human MT4 cells assessed as inhibition of virus-induced cytopathogenicity by MTT assay; type: functional, organism-based; conditions: Human immunodeficiency virus 1, MT4
[6] = system: Human immunodeficiency virus 1; test: Antiviral activity against HIV1 with reverse transcriptase K103N/Y181C mutation in human MT4 cells assessed as inhibition of virus-induced cytopathogenicity by MTT assay; type: functional, organism-based; conditions: for EC50: Human immunodeficiency virus 1, MT4
[7] = biological target: Human immunodeficiency virus type 1 reverse transcriptase (Human immunodeficiency virus 1, UniProt Q72547); test: Inhibition of HIV1 recombinant wild type reverse transcriptase

| SMILES | EC50 [1] | CC50 [2] | selectivity ratio [3] | EC90 [4] | EC50 [5] | Activity [6] | IC50 [7] | EC50 [6] |
| --- | --- | --- | --- | --- | --- | --- | --- | --- |
| CC(Cc1ccccc1)OC(=S)Nc1ccccc1 (racemic) | 9 µM | > 100 µM | > 11 | – | – | – | – | – |
| CC(OC(=S)Nc1ccc([N+](=O)[O-])cc1)c1ccc(Cl)cc1 (racemic) | 7 µM | > 100 µM | > 14 | – | – | – | – | – |
| CCC(OC(=S)Nc1ccccc1)c1ccccc1 (racemic) | > 100 µM | > 100 µM | – | – | – | – | – | – |
| CC(COC(=S)Nc1ccc([N+](=O)[O-])cc1)c1ccccc1 (racemic) | 0.6 µM | > 100 µM | > 167 | 600 nM | – | – | – | – |
| O=[N+]([O-])c1ccc(NC(=S)OCCc2ccccc2)cc1 | – | > 100 µM | – | – | – | – | – | – |
| O=[N+]([O-])c1ccc(NC(=S)OCCc2ccccc2O)cc1 | 10 µM | 36 µM | 3.6 | – | – | – | – | – |
| COc1ccc(CCOC(=S)Nc2ccc([N+](=O)[O-])cc2)cc1 | 1.4 µM | > 100 µM | > 71 | – | – | – | – | – |
| S=C(Nc1ccc(Cl)cc1)OCCOc1ccccc1 | 2.9 µM | 34 µM | 12 | – | – | – | – | – |
| COc1ccc(NC(=S)OCCc2ccccc2)cc1 | – | 36 µM | – | – | – | – | – | – |
| COc1cccc(CCOC(=S)Nc2ccc(Cl)c(Cl)c2)c1 | 1 µM | 44 µM | 44 | – | – | – | – | – |
| CC(OC(=S)Nc1ccc(Cl)cc1)c1cccc2ccccc12 (racemic) | 82 µM | > 100 µM | > 1.2 | – | – | – | – | – |
| S=C(Nc1ccccc1)OCc1cccc(Oc2ccccc2)c1 | > 100 µM | > 100 µM | – | – | – | – | – | – |
| COc1ccccc1CCOC(=S)Nc1ccc(Cl)cc1 | 0.07 µM | 43 µM | 614 | – | 8.9 µM | inactive | – | – |
| CC(COC(=S)Nc1ccc(Cl)c(Cl)c1)c1ccccc1 (racemic) | 0.3 µM | 44 µM | 147 | – | – | – | – | – |
| S=C(Nc1ccccc1)OCC1COc2ccccc2O1 (stereo unspecified) | 52 µM | > 100 µM | > 1.9 | – | – | – | – | – |
| COc1ccccc1CCOC(=S)Nc1ccc([N+](=O)[O-])cc1 | 0.1 µM | > 100 µM | > 1000 | – | – | – | – | – |
| O=[N+]([O-])c1ccc(NC(=S)OCCc2cccc(Cl)c2)cc1 | 1.5 µM | > 100 µM | > 67 | – | – | – | – | – |
| CC(COC(=S)Nc1ccc(Cl)c([N+](=O)[O-])c1)c1ccccc1 (racemic) | 0.5 µM | 41 µM | 82 | – | – | – | – | – |
| CC(COc1ccccc1)OC(=S)Nc1ccccc1 (racemic) | 2 µM | > 100 µM | > 50 | – | – | – | 1000 nM | – |
| O=[N+]([O-])c1ccc(NC(=S)OCCc2ccc(Br)cc2)cc1 | 7.9 µM | > 100 µM | > 13 | – | – | – | – | – |
| Cc1ccc(NC(=S)OCCOc2ccccc2)cc1 | 10 µM | 74 µM | 7.4 | – | – | – | – | – |

| SMILES | EC50 [1] | CC50 [2] | selectivity ratio [3] | EC90 [4] | EC50 [5] | Activity [6] | IC50 [7] | EC50 [6] |
| --- | --- | --- | --- | --- | --- | --- | --- | --- |
| COc1ccccc1CCOC(=S)Nc1ccc(Cl)c(Cl)c1 | 0.3 µM | > 45 µM | > 150 | – | – | – | – | – |
| S=C(Nc1ccc(Cl)cc1)OCCc1ccccc1 | – | > 100 µM | – | – | – | – | – | – |
| COc1cccc(CCOC(=S)Nc2ccc([N+](=O)[O-])cc2)c1 | 0.2 µM | > 100 µM | > 500 | – | 8.3 µM | inactive | – | – |
| S=C(Nc1ccccc1)OCCOc1ccccc1 | 5.8 µM | > 100 µM | > 17 | – | – | – | – | – |
| CC(COC(=S)Nc1ccc(Cl)cc1)c1ccccc1 (racemic) | 0.2 µM | 30 µM | 150 | – | 12 µM | inactive | – | – |
| O=[N+]([O-])c1ccc(OCCOC(=S)Nc2ccc(Cl)cc2)cc1 | > 72 µM | 72 µM | < 1 | – | – | – | – | – |
| Cc1ccc(NC(=S)OC(C)COc2ccccc2)cc1 (racemic) | 1.2 µM | 24 µM | 20 | – | – | – | 1400 nM | – |
| Oc1ccccc1OCCOC(=S)Nc1ccccc1 | 19 µM | > 100 µM | > 5.2 | – | – | – | – | – |
| S=C(NCCc1ccccn1)Nc1ccc(Br)cn1 [TROVIRDINE] | – | 60 µM | 3000 | 15 nM | – | – | – | – |
| COc1cccc(CCOC(=S)Nc2ccc(Cl)c([N+](=O)[O-])c2)c1 | 2 µM | 43 µM | 22 | – | – | – | – | – |
| CC(COc1ccccc1)OC(=S)Nc1ccc(Cl)cc1 (racemic) | 1.6 µM | > 100 µM | > 63 | – | – | – | – | – |
| S=C(Nc1ccccc1)OCC1(c2ccccc2)CC1 | 7 µM | 51 µM | 7.3 | – | – | – | – | – |
| Cc1ccccc1CCOC(=S)Nc1ccc([N+](=O)[O-])cc1 | 0.7 µM | > 100 µM | > 143 | – | – | – | – | – |
| Cc1cccc(CCOC(=S)Nc2ccc([N+](=O)[O-])cc2)c1 | 0.5 µM | 96 µM | 192 | – | 8.9 µM | – | – | 69 µM |
| COc1ccc(NC(=S)OCCOc2ccccc2)cc1 | 17 µM | 48 µM | 2.8 | – | – | – | – | – |
| O=[N+]([O-])c1ccc(NC(=S)OCCOc2ccccc2)cc1 | 8.5 µM | > 100 µM | > 12 | – | – | – | – | – |
| O=[N+]([O-])c1ccc(NC(=S)OCCc2ccc(Cl)cc2)cc1 | 13 µM | > 100 µM | > 7.7 | – | – | – | – | – |
| CC(OC(=S)Nc1ccc(Cl)cc1)c1ccc2ccccc2c1 (racemic) | 26 µM | > 100 µM | > 3.8 | – | – | – | – | – |
| CC(OC(=S)Nc1ccc(Cl)cc1)c1ccc(-c2ccccc2)cc1 (racemic) | 57 µM | > 100 µM | > 1.8 | – | – | – | – | – |
| O=[N+]([O-])c1ccc(NC(=S)OCCc2cccc(O)c2)cc1 | 3.7 µM | 24 µM | 6.5 | – | – | – | – | – |
| S=C(Nc1ccccc1)OCc1c(Cl)cccc1Cl | > 100 µM | > 100 µM | – | – | – | – | – | – |

| SMILES | EC50 [1] | CC50 [2] | selectivity ratio [3] | EC90 [4] | EC50 [5] | Activity [6] | IC50 [7] | EC50 [6] |
| --- | --- | --- | --- | --- | --- | --- | --- | --- |
| O=[N+]([O-])c1ccc(NC(=S)OCCOc2ccc(Br)cc2)cc1 | > 100 µM | > 100 µM | – | – | – | – | – | – |
| S=C(Nc1ccccc1)OCCSc1ccccc1 | 38 µM | > 100 µM | > 2.6 | – | – | – | – | – |
| Cc1ccc(NC(=S)OC(C)COc2ccccc2)cc1Cl (racemic) | 4 µM | > 100 µM | > 25 | – | – | – | – | – |
| Cc1ccc(NC(=S)OCCc2ccccc2)cc1 | – | > 100 µM | – | – | – | – | – | – |
| CC(Cc1ccccc1)OC(=S)Nc1ccc([N+](=O)[O-])cc1 (racemic) | 1.3 µM | 39 µM | 30 | – | – | – | – | – |
| COc1ccccc1CCOC(=S)Nc1ccc(Cl)c([N+](=O)[O-])c1 | 0.9 µM | 44 µM | 49 | – | – | – | – | – |
| S=C(Nc1ccccc1)OCCc1ccccc1 | – | 100 µM | – | – | – | – | – | – |
| Cc1ccc(CCOC(=S)Nc2ccc([N+](=O)[O-])cc2)cc1 | 0.3 µM | > 100 µM | > 333 | – | 8.6 µM | – | – | 92 µM |
| O=[N+]([O-])c1ccc(NC(=S)OCCc2ccc(O)cc2)cc1 | > 41 µM | 41 µM | < 1 | – | – | – | – | – |
| COc1ccc(NC(=S)OC(C)COc2ccccc2)cc1 (racemic) | > 100 µM | > 100 µM | – | – | – | – | – | – |
| S=C(Nc1ccccc1)OCc1cccs1 | > 38 µM | 38 µM | < 1 | – | – | – | – | – |
| O=[N+]([O-])c1ccc(NC(=S)OCCc2ccccc2Cl)cc1 | 0.4 µM | > 100 µM | > 250 | – | – | – | – | – |
| S=C(Nc1ccccc1)OCCCc1ccccc1 | 67 µM | > 100 µM | > 1.5 | – | – | – | – | – |
| S=C(Nc1ccccc1)OC1Cc2ccccc2C1 | 12 µM | > 100 µM | > 8.3 | – | – | – | – | – |
| S=C(Nc1ccccc1)OCC(c1ccccc1)c1ccccc1 | > 100 µM | > 100 µM | – | – | – | – | – | – |
| CC(OC(=S)Nc1ccccc1)c1ccc(Cl)cc1 (racemic) | 5.3 µM | > 100 µM | > 19 | – | – | – | – | – |
| CC(COc1ccccc1)OC(=S)Nc1ccc(F)cc1 (racemic) | 11 µM | > 100 µM | > 9 | – | – | – | – | – |
| CC(COc1ccccc1)OC(=S)Nc1ccc([N+](=O)[O-])cc1 (racemic) | 2.6 µM | > 100 µM | > 38 | – | – | – | – | – |
| O=C1Nc2ccc(Cl)cc2C(C#CC2CC2)(C(F)(F)F)O1 (single isomer, unassigned) [EFAVIRENZ] | – | – | – | – | – | – | – | 0.04 µM |
| S=C(Nc1ccccc1)OC/C=C/c1ccccc1 | 67 µM | > 100 µM | > 1.5 | – | – | – | – | – |
| COc1cccc(CCOC(=S)Nc2ccc(Cl)cc2)c1 | 0.08 µM | 94 µM | 1180 | – | 12 µM | – | – | 86 µM |
